The record followed here is PMC10911062, “Identification and structural validation of purine nucleoside phosphorylase from Plasmodium falciparum as a target of MMV000848” (The Journal of Biological Chemistry, 2023).

The target in series [1] is T1, Purine nucleoside phosphorylase (PfPNP) (Plasmodium falciparum, UniProt Q8I3X4).
T1 construct: gene PNP
T1 sequence (Q8I3X4 1-245): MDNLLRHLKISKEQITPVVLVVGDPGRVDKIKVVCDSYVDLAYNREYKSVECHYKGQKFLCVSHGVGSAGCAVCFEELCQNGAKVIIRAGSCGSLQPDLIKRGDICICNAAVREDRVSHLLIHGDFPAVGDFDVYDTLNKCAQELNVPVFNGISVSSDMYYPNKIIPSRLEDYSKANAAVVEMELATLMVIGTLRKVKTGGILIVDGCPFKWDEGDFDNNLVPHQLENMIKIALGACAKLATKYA
As to the kind of experiment: xanthine oxidase-coupled inosine phosphorolysis assay. It is filed as biochemical.

Series [2] deals with T2, Falcilysin (Plasmodium falciparum, UniProt Q76NL8).
T2 construct: gene FLN
As to the kind of experiment: MS-CETSA (ITDR), intact infected erythrocytes and parasite lysate; minimal dose threshold. It is filed as cell-based.

Series [3] concerns the target T1, Purine nucleoside phosphorylase (PfPNP). Kind of series: ITC; cocrystal structure at […] Å; also DSF, CETSA and enzyme inhibition (IC50 […], Ki […]). Format: binding. Background: In ITC the heat of successive injections is recorded.
Series [4] has the same target. Kind of series: Michaelis-Menten kinetics of the purified enzyme. Format: biochemical.
Series [5] concerns the molecule itself. Kind of series: crystal structure; co-crystal of PfPNP (37 mg/ml) with 3 mM MMV000848, sitting-drop vapor diffusion at 20 °C, 10% (w/v) PEG 1000; 1.85 Å, space group R32; hexamer formed through crystallographic symmetry.

Read-outs that look alike come from different tables or passages of the source.

T2 sequence (Q76NL8 whole entry): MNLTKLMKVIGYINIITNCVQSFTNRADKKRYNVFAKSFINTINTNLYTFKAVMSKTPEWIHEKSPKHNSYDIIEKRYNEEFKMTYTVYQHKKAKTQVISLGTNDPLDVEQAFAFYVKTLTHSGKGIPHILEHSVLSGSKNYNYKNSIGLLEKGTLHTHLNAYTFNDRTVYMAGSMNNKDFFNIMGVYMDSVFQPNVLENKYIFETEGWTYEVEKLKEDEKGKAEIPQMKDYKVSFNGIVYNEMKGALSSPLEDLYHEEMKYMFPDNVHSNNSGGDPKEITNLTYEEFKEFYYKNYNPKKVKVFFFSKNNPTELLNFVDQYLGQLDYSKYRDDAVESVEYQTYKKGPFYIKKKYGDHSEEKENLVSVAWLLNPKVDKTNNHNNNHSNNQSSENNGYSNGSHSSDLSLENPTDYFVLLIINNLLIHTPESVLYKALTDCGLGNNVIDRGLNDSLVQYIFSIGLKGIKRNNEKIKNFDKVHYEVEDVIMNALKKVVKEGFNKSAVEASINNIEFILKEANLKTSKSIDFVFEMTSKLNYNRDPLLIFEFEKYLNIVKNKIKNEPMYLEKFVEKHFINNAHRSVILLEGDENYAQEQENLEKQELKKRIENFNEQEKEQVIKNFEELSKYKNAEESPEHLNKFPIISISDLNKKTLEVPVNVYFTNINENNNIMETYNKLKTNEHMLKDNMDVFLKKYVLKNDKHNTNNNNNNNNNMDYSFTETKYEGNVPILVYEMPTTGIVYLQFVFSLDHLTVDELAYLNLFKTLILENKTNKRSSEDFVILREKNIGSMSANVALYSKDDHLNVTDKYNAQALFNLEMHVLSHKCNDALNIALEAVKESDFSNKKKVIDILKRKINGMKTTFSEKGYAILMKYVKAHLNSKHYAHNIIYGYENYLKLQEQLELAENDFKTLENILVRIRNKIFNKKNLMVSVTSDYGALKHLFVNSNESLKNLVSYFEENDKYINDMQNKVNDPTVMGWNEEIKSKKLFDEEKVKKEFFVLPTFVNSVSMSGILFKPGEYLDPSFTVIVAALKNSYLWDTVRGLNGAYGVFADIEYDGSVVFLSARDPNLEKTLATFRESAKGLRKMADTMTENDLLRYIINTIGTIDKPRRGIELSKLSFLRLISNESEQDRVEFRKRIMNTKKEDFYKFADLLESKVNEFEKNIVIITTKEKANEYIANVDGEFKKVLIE

What is called IC50 is the concentration needed to halve the response being measured. As for `OC(c1cc(C(F)(F)F)nc2c(C(F)(F)F)cccc12)C1CCCCN1` (racemic) [mefloquine], half-maximal inhibition in series [1] (IC50) required 327 µM. In general, Kd refers to the equilibrium constant for the complex coming apart. On to `OC(CNC1CCCC1)Cn1c2ccccc2c2ccccc21` (stereo not drawn) [MMV000848, 1-carbazol-9-yl-3-cyclopentylamino-propan-2-ol], for which the “MDT” value in series [2] is 749.91 nM. The molecule further showed a Kd in series [3] of 1.52 µM. In the case of `O=c1[nH]cnc2c1ncn2[C@@H]1O[C@H](CO)[C@@H](O)[C@H]1O` [inosine], the “Michaelis-Menten kinetics of the purified enzyme” value in series [4] is on record as “Measurements of KM,app (apparent KM) of inosine was made in the presence of various concentrations of MMV000848”. For `C=C[C@H]1C[N@@]2CC[C@H]1C[C@H]2[C@H](O)c1ccnc2ccc(OC)cc12` [quinine], in series [1] (read-out: IC50), the concentration for half-maximal inhibition (IC50) was 11.3 µM.

B1: Plasmodium falciparum purine nucleoside phosphorylase (enzyme)
chain: MDNLLRHLKISKEQITPVVLVVGDPGRVDKIKVVCDSYVDLAYNREYKSVECHYKGQKFLCVSHGVGSAGCAVCFEELCQNGAKVIIRAGSCGSLQPDLIKRGDICICNAAVREDRVSHLLIHGDFPAVGDFDVYDTLNKCAQELNVPVFNGISVSSDMYYPNKIIPSRLEDYSKANAAVVEMELATLMVIGTLRKVKTGGILIVDGCPFKWDEGDFDNNLVPHQLENMIKIALGACAKLATKYA
notes: Purine nucleoside phosphorylase of Plasmodium falciparum, PlasmoDB PF3D7_0513300; gene subcloned into pNIC-CH; Homo-hexamer (three 2-fold symmetrical dimers around a crystallographic three-fold axis); one protein chain in the asymmetric unit; also called PfPNP; PNP; source: Rosetta BL21-DE3 Escherichia coli, purified (IMAC on HisTrapHP, SEC on Superdex 200)
One may read the stoichiometry N as the number of molecules, sites or subunits per partner or assembly. With B1, the “stoichiometry N” value in series [5] was found to be 6.
